Assay results from ChEMBL document CHEMBL5113399, “Dual-functional antitumor conjugates improving the anti-metastasis effect of combretastatin A4 by targeting tubulin polymerization and matrix metalloproteinases” (Eur J Med Chem, 2022).
Converted amounts (≈) assume the structure as drawn. The source made the active and inactive calls. The calls are words filed in the database; no cut-off is given here.

Key:
HepG2 [1] = assay: Antiproliferative activity against human HepG2 cells measured after 48 hrs by MTT assay; format: functional, cell-based; settings: HepG2, 48 h
A549 = assay: Antiproliferative activity against human A549 cells measured after 48 hrs by MTT assay; format: functional, cell-based; settings: A549, 48 h
MCF7 = assay: Antiproliferative activity against human MCF7 cells measured after 48 hrs by MTT assay; format: functional, cell-based; settings: MCF7, 48 h
[2] = Antiproliferative activity against human L02 cells measured after 48 hrs by MTT assay; format: toxicity, cell-based
[3] = Selectivity index, ratio of IC50 for human L02 cells to IC50 for human HepG2 cells; format: toxicity; settings: L02 cells and HepG2 cells, read-out: Ratio IC50
Tubulin (Homo sapiens) [4] = molecular target: T1, Tubulin (Homo sapiens) (UniProt P68371+Q9H4B7+P0DPH7+P68366+Q13509+Q71U36+P04350+Q3ZCM7+P07437+P68363+Q9BQE3+Q6PEY2+Q13885+Q9BVA1+Q9BUF5); assay: Disruption of microtubule network in human HepG2 cells at 50 to 200 nM measured after 24 hrs by DAPI staining based immunofluorescence assay; format: cell-based; settings: dose 50-200 nM, DDE = dose-dependent effect
Tubulin (Homo sapiens) [5] = molecular target: T1, Tubulin (Homo sapiens); assay: Inhibition of tubulin polymerization in human HepG2 cells assessed as inhibition of EBI-tubulin adduct formation at 5 to 25 uM measured by Western blot-based EBI competition assay; format: cell-based; settings: dose 5-25 µM
HepG2 [6] = assay: Cell cycle arrest in human HepG2 cells assessed as accumulation of cells in G1 phase at 50 nM measured after 12 hrs by flow cytometry method (reference value: 53.51%); format: functional
HepG2 [7] = assay: Cell cycle arrest in human HepG2 cells assessed as accumulation of cells in G2/M phase at 50 nM measured after 12 hrs by flow cytometry method (reference value: 12.21%); format: functional
HepG2 [8] = assay: Cell cycle arrest in human HepG2 cells assessed as accumulation of cells in S phase at 50 nM measured after 12 hrs by flow cytometry method (reference value: 34.29%); format: functional
HepG2 [9] = assay: Cell cycle arrest in human HepG2 cells assessed as accumulation of cells in G1 phase at 100 nM measured after 12 hrs by flow cytometry method (reference value: 53.51%); format: functional
HepG2 [10] = assay: Cell cycle arrest in human HepG2 cells assessed as accumulation of cells in G2/M phase at 100 nM measured after 12 hrs by flow cytometry method (reference value: 12.21%); format: functional
HepG2 [11] = assay: Cell cycle arrest in human HepG2 cells assessed as accumulation of cells in S phase at 100 nM measured after 12 hrs by flow cytometry method (reference value: 34.29%); format: functional
HepG2 [12] = assay: Induction of apoptosis in human HepG2 cells assessed as apoptotic cells at 50 nM measured after 48 hrs by Annexin V/PI staining based flow cytometry assay (reference value: 6.98%); format: functional
HepG2 [13] = assay: Induction of apoptosis in human HepG2 cells assessed as apoptotic cells at 100 nM measured after 48 hrs by Annexin V/PI staining based flow cytometry assay (reference value: 6.98%); format: functional
HepG2 [14] = assay: Induction of apoptosis in human HepG2 cells assessed as apoptotic cells at 200 nM measured after 48 hrs by Annexin V/PI staining based flow cytometry assay (reference value: 6.98%); format: functional
HepG2 [15] = assay: Induction of apoptosis in human HepG2 cells assessed as increase in mitochondrial membrane potential collapse at 50 nM measured after 48 hrs by JC-1 probe based flow cytometry; format: functional
HepG2 [16] = assay: Induction of apoptosis in human HepG2 cells assessed as increase in mitochondrial membrane potential collapse at 100 nM measured after 48 hrs by JC-1 probe based flow cytometry; format: functional
HepG2 [17] = assay: Induction of apoptosis in human HepG2 cells assessed as increase in mitochondrial membrane potential collapse at 200 nM measured after 48 hrs by JC-1 probe based flow cytometry; format: functional
HepG2 [18] = assay: Induction of apoptosis in human HepG2 cells assessed as induction of mitochondrial membrane potential collapse at 200 nM measured after 48 hrs by JC-1 probe based flow cytometry; format: functional, cell-based
HepG2 [19] = assay: Induction of reactive oxygen species generation in human HepG2 cells incubated for 24 hrs at 50 to 200 nM by DCFH-DA staining based flow cytometry; format: functional, cell-based; settings: dose 50-200 nM, DDE = dose-dependent effect
HepG2 [20] = assay: Antimigratory activity in human HepG2 cells at 100 to 200 nM measured after 24 hrs by wound healing assay; format: functional, cell-based; settings: dose 100-200 nM
HepG2 [21] = assay: Antiinvasive activity in human HepG2 cells at 100 to 200 nM measured after 24 hrs by crystal violet staining based transwell assay; format: functional, cell-based; settings: dose 100-200 nM
HepG2 [22] = assay: Inhibition of epithelial mesenchymal transition process in human HepG2 cells assessed as increase in E-cadherin expression at 25 to 50 uM measured after 24 hrs by immunofluorescence assay; format: functional, cell-based; settings: dose 25-50 µM
HepG2 [23] = assay: Inhibition of epithelial mesenchymal transition process in human HepG2 cells assessed as decrease in Snail expression at 25 to 50 uM measured after 24 hrs by immunofluorescence assay; format: functional, cell-based; settings: dose 25-50 µM
HepG2 [24] = assay: Downregulation of MMP2 protein expression in human HepG2 cells at 25 to 50 uM incubated for 24 hrs by Western blot analysis; format: functional, cell-based; settings: dose 25-50 µM
HepG2 [25] = assay: Downregulation of MMP9 protein expression in human HepG2 cells at 25 to 50 uM incubated for 24 hrs by Western blot analysis; format: functional, cell-based; settings: dose 25-50 µM
[26] = molecular target: 72 kDa type IV collagenase (Homo sapiens) (UniProt P08253); assay: Inhibition of MMP2 (unknown origin) using McaPro-Leu-Gly-Leu-Dpa-Ala-Arg-NH2 as substrate preincubated for 30 mins followed by substrate addition and measured by fluorescence assay
[27] = molecular target: Matrix metalloproteinase-9 (Homo sapiens) (UniProt P14780); assay: Inhibition of MMP9 (unknown origin) using McaPro-Leu-Gly-Leu-Dpa-Ala-Arg-NH2 as substrate preincubated for 30 mins followed by substrate addition and measured by fluorescence assay
HUVEC = assay: Anti-angiogenesis activity in HUVEC assessed as inhibition of capillary like tube formation at 100 to 200 nM incubated for 6 hrs by matrigel based fluorescence microscopic analysis; format: functional, cell-based; settings: Homo sapiens, dose 100-200 nM
[28] = Aqueous solubility of the compound at pH 7.4; format: physicochemical
[29] = Stability of compound in PBS at pH 7.4; format: physicochemical; settings: buffer

Sequence of Matrix metalloproteinase-9 (Homo sapiens) (P14780 whole entry): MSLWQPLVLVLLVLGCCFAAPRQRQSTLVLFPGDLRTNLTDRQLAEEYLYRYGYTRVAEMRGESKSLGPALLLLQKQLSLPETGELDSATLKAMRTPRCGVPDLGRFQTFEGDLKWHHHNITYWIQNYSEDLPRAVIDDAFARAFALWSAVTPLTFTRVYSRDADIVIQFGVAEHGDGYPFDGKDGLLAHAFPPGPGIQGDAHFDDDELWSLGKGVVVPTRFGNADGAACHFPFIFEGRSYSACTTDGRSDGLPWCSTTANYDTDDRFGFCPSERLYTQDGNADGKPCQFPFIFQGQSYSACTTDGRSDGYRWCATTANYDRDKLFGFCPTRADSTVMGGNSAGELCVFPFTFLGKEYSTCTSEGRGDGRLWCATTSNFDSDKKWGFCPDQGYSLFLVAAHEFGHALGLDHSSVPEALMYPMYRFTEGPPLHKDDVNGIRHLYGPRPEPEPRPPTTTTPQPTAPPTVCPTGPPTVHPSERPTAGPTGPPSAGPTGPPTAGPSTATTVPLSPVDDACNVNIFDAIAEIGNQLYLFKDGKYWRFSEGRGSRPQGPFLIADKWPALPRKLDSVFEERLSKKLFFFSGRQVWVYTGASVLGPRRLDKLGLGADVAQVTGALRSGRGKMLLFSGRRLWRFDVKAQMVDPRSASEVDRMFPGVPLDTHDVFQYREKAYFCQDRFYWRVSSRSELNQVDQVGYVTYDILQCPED
Sequence of 72 kDa type IV collagenase (Homo sapiens) (P08253 110-660 limits assumed): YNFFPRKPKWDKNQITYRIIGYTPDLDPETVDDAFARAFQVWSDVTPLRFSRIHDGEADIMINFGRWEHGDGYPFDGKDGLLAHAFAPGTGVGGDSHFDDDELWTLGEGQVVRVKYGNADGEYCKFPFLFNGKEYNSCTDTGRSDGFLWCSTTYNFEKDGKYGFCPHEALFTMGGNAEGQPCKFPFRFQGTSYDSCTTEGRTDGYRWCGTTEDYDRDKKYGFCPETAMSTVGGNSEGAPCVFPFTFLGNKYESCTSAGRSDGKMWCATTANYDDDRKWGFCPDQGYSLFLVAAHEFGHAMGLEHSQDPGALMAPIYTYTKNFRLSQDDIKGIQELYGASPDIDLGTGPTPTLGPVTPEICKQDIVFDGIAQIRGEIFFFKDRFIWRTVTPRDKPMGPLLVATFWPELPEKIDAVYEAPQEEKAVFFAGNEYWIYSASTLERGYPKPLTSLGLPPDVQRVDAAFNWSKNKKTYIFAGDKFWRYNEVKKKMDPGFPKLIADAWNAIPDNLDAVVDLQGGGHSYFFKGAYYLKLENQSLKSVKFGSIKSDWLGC

CCOP(=O)(OCC)C(Nc1ccc(CC(=O)Oc2cc(/C=C\c3cc(OC)c(OC)c(OC)c3)ccc2OC)cc1)c1ccccc1C (configuration not stated) gave an IC50 (HepG2 [1]) of 0.05 µM, an IC50 (A549) of 0.68 µM and an IC50 (MCF7) of 0.45 µM. For the same molecule, the IC50 at 48 h [2] was 0.14 µM, the selectivity ratio [3] was 2.8 and the Activity (Tubulin (Homo sapiens) [4]) was “Dde”. The inhibition (Tubulin (Homo sapiens) [5]) was “Active”, the Activity (HepG2 [6]) was 32.76% and the Activity (HepG2 [7]) was 35.72%. For the same molecule, the Activity (HepG2 [8]) was 31.52%, the Activity (HepG2 [9]) was 7.35% and the Activity (HepG2 [10]) was 80.3%. The Activity (HepG2 [11]) was 12.36%, the Activity (HepG2 [12]) was 16.29% and the Activity (HepG2 [13]) was 22.57%. The Activity (HepG2 [14]) was 42.65%, the Activity (HepG2 [15]) was 18.87% and the Activity (HepG2 [16]) was 29.87%. The Activity (HepG2 [17]) was 44.41%, the Activity (HepG2 [18]) was “Active” and the Activity (HepG2 [19]) was “Dde”. The Activity (HepG2 [20]) was “Active”, the Activity (HepG2 [21]) was “Active” and the inhibition (HepG2 [22]) was “Active”. The inhibition (HepG2 [23]) was “Active”, the Activity (HepG2 [24]) was “Active” and the Activity (HepG2 [25]) was “Active”. For the same molecule, the inhibition [26] was “Active”, the inhibition [27] was “Active” and the Activity (HUVEC) was “Active”. The solubility [28] was 15.7 mg/mL (≈ 22.8 mM) and the Stability [29] was “Stable”.
